Measurements published in ChEMBL document CHEMBL5212743, “Selectivity Literature for EUbOPEN Chemogenomics Library wave 3” (2023).
Blank lines part the entries; values can stand above or below the molecule they belong to.

What was measured:
[1] = target: Death-associated protein kinase 1 (Homo sapiens) (UniProt P53355); assay: Selectivity interaction (KinomeScan (DiscoverX)) EUB0000698a DAPK1; details: at 10 µM
[2] = test system: Mast/stem cell growth factor receptor Kit (Homo sapiens), P10721 [D816V]; assay: Selectivity interaction (KinomeScan (DiscoverX)) EUB0000698a KIT; details: at 10 µM
Mast/stem cell growth factor receptor Kit (Homo sapiens), P10721 [D816V], sequence (P10721 whole entry D816V): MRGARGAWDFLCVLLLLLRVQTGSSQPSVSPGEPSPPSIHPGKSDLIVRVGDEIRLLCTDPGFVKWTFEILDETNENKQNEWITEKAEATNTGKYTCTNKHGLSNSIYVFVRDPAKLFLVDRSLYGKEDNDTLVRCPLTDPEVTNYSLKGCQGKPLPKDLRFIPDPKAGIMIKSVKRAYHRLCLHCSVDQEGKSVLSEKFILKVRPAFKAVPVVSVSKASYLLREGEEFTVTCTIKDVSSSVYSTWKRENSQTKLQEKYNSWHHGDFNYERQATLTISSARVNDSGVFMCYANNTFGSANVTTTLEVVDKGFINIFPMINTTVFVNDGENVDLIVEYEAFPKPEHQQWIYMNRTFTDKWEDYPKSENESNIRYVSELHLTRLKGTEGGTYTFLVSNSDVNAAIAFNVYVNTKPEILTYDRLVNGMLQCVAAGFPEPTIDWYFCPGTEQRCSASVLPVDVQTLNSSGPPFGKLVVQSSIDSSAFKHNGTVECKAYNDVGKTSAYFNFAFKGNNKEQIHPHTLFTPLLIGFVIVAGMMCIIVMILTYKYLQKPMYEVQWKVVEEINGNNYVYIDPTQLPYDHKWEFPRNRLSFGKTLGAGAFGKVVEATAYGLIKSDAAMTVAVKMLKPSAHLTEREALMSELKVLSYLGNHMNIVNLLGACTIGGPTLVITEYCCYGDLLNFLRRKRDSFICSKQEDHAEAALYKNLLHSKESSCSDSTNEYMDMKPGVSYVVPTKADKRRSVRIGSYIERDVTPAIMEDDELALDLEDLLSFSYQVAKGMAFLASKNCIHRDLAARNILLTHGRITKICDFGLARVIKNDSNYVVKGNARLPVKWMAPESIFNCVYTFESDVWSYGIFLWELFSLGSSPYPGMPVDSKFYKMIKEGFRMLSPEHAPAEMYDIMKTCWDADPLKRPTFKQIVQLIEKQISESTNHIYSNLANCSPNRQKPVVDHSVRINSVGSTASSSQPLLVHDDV

[3] = target: 5'-AMP-activated protein kinase catalytic subunit alpha-1 (Homo sapiens, UniProt Q13131); assay: Selectivity interaction (Kinase panel (University of Dundee)) EUB0000169b PRKAA1; details: at 10 µM
[4] = test system: ALK tyrosine kinase receptor (Homo sapiens), Q9UM73 [C1156Y]; assay: Selectivity interaction (KinomeScan (DiscoverX)) EUB0000169b ALK; details: at 1 µM
Aurora kinase B = Aurora kinase B (Homo sapiens, UniProt Q96GD4); assay: Selectivity interaction (Enzymatic assay) EUB0000178b AURKB
Aurora kinase B, sequence (Q96GD4 whole entry): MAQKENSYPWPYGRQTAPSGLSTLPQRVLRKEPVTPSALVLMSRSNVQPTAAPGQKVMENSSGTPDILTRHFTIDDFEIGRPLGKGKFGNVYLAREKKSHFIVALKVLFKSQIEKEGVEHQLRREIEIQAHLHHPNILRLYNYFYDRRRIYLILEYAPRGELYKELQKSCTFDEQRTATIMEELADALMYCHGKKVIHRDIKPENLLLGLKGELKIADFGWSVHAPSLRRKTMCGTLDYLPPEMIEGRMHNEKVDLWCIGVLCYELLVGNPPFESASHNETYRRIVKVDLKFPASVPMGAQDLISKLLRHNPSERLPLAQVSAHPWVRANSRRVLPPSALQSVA

[5] = target: Serine/threonine-protein kinase DCLK1 (Homo sapiens) (UniProt O15075); assay: Selectivity interaction (KinomeScan (DiscoverX)) EUB0000178b DCLK1; details: at 1 µM
Serine/threonine-protein kinase DCLK1 (Homo sapiens), sequence (O15075 whole entry): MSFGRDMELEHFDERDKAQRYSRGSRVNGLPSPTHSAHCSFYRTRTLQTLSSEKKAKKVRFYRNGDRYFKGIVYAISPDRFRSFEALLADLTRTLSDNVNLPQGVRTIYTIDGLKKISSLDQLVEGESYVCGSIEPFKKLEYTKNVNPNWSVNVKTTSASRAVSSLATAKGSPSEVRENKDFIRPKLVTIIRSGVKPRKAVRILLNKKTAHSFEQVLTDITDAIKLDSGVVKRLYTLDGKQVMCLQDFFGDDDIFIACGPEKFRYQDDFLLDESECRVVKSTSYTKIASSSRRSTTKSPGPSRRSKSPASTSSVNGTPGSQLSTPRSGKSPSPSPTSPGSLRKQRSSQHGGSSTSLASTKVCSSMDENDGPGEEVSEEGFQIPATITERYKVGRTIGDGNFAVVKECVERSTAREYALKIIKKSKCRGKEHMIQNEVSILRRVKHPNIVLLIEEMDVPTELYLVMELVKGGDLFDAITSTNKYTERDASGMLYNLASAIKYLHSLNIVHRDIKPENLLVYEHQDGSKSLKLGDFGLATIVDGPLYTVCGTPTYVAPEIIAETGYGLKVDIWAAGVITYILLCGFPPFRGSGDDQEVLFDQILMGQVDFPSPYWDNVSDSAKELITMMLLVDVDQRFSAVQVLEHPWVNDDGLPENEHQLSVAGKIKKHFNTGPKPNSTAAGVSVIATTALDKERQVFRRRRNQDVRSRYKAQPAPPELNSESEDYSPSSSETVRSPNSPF

[6] = target: Tyrosine-protein kinase ABL1 (Homo sapiens, UniProt P00519, T315I); assay: Selectivity interaction (KinomeScan (DiscoverX, competition-binding assay)) EUB0000178b ABL1
[7] = target: Serine/threonine-protein kinase PLK3 (Homo sapiens, UniProt Q9H4B4); assay: Selectivity interaction (KinomeScan (DiscoverX)) EUB0000702a PLK3; details: at 1 µM
[8] = target: Serine/threonine-protein kinase ULK1 (Homo sapiens) (UniProt O75385); assay: Selectivity interaction (KinomeScan (DiscoverX)) EUB0000702a ULK1; details: at 1 µM
[9] = target: BMP-2-inducible protein kinase (Homo sapiens) (UniProt Q9NSY1); assay: Selectivity interaction (KinomeScan (DiscoverX)) EUB0000702a BMP2K; details: at 1 µM
BMP-2-inducible protein kinase (Homo sapiens), sequence (Q9NSY1 whole entry, looked up): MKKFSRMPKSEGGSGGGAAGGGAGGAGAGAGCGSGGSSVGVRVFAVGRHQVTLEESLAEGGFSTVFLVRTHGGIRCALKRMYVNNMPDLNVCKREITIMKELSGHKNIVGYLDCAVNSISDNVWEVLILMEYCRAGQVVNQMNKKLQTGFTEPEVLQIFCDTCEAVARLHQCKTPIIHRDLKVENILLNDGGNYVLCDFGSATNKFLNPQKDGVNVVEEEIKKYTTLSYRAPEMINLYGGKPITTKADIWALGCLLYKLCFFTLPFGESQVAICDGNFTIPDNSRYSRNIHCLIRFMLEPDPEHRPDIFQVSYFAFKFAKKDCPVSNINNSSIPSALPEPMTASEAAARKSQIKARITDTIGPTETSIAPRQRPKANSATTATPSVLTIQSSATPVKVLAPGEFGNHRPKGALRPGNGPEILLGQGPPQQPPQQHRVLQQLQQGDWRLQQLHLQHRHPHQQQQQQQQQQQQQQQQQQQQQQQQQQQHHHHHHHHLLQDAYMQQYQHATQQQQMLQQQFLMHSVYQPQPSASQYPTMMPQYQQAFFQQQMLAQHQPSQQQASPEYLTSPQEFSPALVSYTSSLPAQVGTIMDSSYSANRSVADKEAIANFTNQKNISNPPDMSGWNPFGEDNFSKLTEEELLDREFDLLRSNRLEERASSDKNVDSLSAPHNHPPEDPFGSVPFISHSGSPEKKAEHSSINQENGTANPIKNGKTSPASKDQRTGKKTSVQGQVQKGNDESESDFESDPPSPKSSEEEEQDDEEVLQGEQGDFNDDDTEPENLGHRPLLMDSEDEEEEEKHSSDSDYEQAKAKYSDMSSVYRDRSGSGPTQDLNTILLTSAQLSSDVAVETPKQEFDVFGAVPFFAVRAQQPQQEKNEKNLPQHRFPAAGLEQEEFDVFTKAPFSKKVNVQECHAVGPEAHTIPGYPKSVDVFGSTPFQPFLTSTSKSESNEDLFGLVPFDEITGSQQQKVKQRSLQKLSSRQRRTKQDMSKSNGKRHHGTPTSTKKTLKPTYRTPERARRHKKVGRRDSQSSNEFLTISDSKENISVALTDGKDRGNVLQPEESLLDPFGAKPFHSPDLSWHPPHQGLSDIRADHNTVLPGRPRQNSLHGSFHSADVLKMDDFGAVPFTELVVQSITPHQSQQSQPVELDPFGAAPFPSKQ

[10] = target: T1, Receptor-interacting serine/threonine-protein kinase 4 (Homo sapiens) (UniProt P57078); assay: Selectivity interaction (KinomeScan (DiscoverX)) EUB0000702a RIPK4; details: at 1 µM
T1 sequence (whole entry): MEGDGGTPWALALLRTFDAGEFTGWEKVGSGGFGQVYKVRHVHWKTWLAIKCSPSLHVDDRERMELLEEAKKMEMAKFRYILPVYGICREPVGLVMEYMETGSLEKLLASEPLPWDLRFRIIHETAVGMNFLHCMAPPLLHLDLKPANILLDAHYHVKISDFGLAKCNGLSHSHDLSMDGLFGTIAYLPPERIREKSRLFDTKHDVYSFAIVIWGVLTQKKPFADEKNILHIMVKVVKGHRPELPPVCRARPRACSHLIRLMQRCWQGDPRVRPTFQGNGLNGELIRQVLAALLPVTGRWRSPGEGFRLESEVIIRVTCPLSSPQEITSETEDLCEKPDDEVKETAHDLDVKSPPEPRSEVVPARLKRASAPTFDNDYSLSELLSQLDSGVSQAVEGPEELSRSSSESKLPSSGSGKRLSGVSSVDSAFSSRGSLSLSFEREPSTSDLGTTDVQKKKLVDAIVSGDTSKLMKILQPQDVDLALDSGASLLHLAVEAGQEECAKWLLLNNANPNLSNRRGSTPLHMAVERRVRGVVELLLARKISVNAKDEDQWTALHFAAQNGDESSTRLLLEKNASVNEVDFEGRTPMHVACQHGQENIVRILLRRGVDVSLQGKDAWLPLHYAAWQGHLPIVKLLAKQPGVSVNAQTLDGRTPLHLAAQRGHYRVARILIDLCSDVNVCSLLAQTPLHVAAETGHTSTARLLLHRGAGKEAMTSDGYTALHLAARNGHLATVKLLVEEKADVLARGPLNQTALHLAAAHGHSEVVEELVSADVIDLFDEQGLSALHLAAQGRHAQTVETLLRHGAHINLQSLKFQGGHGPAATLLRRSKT

[11] = target: Receptor-type tyrosine-protein kinase FLT3 (Homo sapiens) (UniProt P36888); details: at 1 µM
[12] = target: T2, Mitogen-activated protein kinase kinase kinase 19 (Homo sapiens) (UniProt Q56UN5); assay: Selectivity interaction (KinomeScan (DiscoverX)) EUB0000138c MAP3K19; details: at 100 nM
T2 sequence (whole entry): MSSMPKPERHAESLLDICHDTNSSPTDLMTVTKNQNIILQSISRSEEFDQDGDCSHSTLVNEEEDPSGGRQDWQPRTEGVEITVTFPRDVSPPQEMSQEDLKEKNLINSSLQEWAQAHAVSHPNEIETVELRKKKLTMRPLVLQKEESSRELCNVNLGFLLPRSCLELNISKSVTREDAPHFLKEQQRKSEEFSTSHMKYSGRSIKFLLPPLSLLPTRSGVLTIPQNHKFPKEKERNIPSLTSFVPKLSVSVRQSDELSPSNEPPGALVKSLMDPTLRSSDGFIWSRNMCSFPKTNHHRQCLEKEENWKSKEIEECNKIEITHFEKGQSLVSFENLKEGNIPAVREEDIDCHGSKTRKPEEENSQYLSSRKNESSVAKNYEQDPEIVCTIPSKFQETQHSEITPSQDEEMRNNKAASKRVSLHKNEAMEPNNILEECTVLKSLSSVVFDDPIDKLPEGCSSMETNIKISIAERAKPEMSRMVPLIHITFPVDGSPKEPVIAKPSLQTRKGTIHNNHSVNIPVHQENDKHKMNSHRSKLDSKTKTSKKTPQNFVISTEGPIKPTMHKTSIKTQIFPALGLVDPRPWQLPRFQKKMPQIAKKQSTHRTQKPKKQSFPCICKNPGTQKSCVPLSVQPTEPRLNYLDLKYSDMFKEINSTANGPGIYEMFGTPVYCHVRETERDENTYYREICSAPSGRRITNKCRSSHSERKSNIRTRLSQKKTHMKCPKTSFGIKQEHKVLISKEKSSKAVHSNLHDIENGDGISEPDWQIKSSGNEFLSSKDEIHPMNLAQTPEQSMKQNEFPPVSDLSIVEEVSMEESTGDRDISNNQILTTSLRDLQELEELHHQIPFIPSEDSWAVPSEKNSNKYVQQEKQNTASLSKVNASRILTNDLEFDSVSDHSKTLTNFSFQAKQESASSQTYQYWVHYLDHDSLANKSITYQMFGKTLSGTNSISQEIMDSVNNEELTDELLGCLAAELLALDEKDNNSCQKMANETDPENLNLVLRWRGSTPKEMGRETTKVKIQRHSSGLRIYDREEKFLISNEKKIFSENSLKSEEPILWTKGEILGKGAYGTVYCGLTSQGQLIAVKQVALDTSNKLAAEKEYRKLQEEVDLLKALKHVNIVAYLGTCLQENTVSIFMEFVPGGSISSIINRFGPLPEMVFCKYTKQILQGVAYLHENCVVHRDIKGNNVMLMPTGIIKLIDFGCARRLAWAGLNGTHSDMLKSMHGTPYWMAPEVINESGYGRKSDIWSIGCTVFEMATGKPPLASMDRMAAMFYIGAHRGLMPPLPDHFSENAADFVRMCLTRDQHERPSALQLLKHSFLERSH

Death-associated protein kinase 1 (Homo sapiens), sequence (P53355 whole entry, looked up): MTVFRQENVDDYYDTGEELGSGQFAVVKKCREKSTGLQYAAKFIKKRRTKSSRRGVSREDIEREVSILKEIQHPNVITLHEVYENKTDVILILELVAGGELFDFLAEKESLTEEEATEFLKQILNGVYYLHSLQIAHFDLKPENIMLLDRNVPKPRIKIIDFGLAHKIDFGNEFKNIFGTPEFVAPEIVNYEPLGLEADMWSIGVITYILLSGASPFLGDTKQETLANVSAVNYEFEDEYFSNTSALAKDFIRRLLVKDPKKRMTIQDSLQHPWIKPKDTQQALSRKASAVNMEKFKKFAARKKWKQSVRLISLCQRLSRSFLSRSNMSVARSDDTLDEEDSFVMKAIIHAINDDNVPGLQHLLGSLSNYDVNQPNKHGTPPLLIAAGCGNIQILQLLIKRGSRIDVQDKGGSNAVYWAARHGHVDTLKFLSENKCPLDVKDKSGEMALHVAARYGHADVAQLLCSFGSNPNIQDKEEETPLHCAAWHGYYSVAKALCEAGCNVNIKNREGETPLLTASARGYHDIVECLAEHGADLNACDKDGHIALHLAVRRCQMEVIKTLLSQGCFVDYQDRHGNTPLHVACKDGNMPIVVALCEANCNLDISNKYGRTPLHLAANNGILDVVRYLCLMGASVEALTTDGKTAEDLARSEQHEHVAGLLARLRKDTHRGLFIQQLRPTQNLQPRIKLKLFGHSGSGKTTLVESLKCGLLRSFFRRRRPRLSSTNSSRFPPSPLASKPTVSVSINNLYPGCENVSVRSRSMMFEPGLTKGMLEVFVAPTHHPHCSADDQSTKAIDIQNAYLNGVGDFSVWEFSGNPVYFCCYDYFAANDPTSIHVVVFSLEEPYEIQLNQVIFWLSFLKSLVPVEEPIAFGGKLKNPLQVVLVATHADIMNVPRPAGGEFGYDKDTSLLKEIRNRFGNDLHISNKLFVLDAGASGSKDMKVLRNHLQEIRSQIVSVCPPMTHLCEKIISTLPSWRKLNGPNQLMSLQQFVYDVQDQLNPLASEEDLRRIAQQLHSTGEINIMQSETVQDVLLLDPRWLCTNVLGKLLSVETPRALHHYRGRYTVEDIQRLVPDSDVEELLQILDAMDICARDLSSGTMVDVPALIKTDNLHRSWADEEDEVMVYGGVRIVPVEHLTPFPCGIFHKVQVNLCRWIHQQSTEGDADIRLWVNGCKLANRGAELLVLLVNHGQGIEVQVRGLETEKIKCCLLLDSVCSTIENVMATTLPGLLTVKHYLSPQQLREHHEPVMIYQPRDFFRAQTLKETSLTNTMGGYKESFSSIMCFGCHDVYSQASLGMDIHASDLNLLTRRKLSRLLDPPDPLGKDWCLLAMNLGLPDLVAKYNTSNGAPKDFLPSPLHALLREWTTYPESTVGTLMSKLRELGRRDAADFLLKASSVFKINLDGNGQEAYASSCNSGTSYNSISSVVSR

IC50 (Aurora kinase B): 19.4 nM
% of control [5]: 8.3%
Kd [6]: 14 nM
Compound: CN1C(=O)c2sccc2N(C)c2nc(Nc3ccc(S(N)(=O)=O)cc3)ncc21

% of control [7]: 1.7%
% of control [8]: 1.2%
% of control [9]: 2.3%
% of control [10]: 6%
Compound: CN(c1ccnc(CNc2nc(Nc3ccc4c(c3)CC(=O)N4)ncc2C(F)(F)F)n1)S(C)(=O)=O [PF-00911705]

% of control [12]: 1.7%
Compound: CNC(=O)c1ccc(Nc2ncc(C(F)(F)F)c(NCc3nccnc3N(C)S(C)(=O)=O)n2)cc1 [DEFACTINIB]

Further lines, the molecule ahead of its results:

Compound: COc1cc2ncn(-c3cc(OCc4ccccc4C(F)(F)F)c(C(N)=O)s3)c2cc1OC [GW843682X]
% of control [1]: 8.6%
% of control [2]: 1.4%

Compound: CC[C@@H]1C(=O)N(C)c2cnc(Nc3ccc(C(=O)NC4CCN(C)CC4)cc3OC)nc2N1C1CCCC1
% of control [3]: 89%
% of control [4]: 0.3%

Compound: CCOc1cn(-c2ccc(F)cc2C)nc1C(=O)Nc1ccc(Oc2ccnc3cc(OC)c(OC)cc23)c(F)c1
% of control [11]: < 10%
